The values below are quoted from earlier work in patent publication US7803392B2, “pH-Sensitive mucoadhesive film-forming gels and wax-film composites suitable for topical and mucosal delivery of molecules” (University of Kentucky Research Foundation, priority 2000, dated 2010).

The conditions of data set [1]: buccal 10 mg midazolam per 2 mL.
For data set [2] the following is noted: buccal administration of 5 mg midazolam.
The conditions of data set [3]: subcutaneous injection twice a day for 8 days, patients.

Usually pKa stands for the negative logarithm of the acid dissociation constant. Turning to `Oc1cc(Cl)ccc1Oc1ccc(Cl)cc1Cl` [Triclosan, 2,4,4′-Trichloro 2′-hydroxy-diphenyl-ether 5-chloro 2-(2,4-dichlorophenoxy)-phenol], the pKa is recorded as 7.9. Besides, the “solubility in alkaline solutions” value (alkaline solutions) was “readily soluble”. In addition, the solubility in ethanol result (ethanol) is reported as “soluble”. The “solubility in polyethylene glycol 400” value (polyethylene glycol 400) is given as “soluble”. Moreover, the solubility in water result (water) is “insoluble”.

`Cc1ncc2n1-c1ccc(Cl)cc1C(c1ccccc1F)=NC2` [midazolam]: in data set [1] (children), the “average time to stop seizures after administration” value is 6 min. Moreover, the seizures stopped in data set [1] (children (30/40 seizures)) was 75%. Also, in data set [2], the maximum plasma concentration is given as 55.9 ng/mL, the mean bioavailability was 74.5% and the “time of maximum plasma concentration” value was 30 min.

Turning to Hirudin, the “lower overall rate of deep-vein thrombosis than low molecular weight heparin” value in data set [3] is given as around 30%.
